Source: the supplement of paper PMC6045584
± gives the standard deviation of the averaged measurements.

Assays:
TIOGUANINE = compound: Nc1nc2[nH]cnc2c(=S)[nH]1 [TIOGUANINE]; assay: surviving fraction relative to DMSO-only wells; higher = less growth inhibition; conditions: exposure time: 5 days
How it was run: (§1)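 At 250–500 cells per well in 384-well plates, log-phase tumour cell lines were seeded and, 24 hours on, exposed continuously for five days to inhibitors at 0.5, 1, 5, 10, 50, 100, 500 and 1000 nM. Viability readout was CellTiter-Glo luminescence, reported as surviving fraction normalised to the median of DMSO-only wells.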

SAPACITABINE = compound: CCCCCCCCCCCCCCCC(=O)Nc1ccn([C@@H]2O[C@H](CO)[C@@H](O)[C@@H]2C#N)c(=O)n1 [SAPACITABINE]; assay: as above; conditions: exposure time: 5 days
How it was run: as §1

Test System | surviving fraction (TIOGUANINE; 0.5 nM) | surviving fraction (TIOGUANINE; 1 nM) | surviving fraction (TIOGUANINE; 5 nM) | surviving fraction (TIOGUANINE; 10 nM) | surviving fraction (TIOGUANINE; 50 nM) | surviving fraction (TIOGUANINE; 100 nM) | surviving fraction (TIOGUANINE; 500 nM) | surviving fraction (TIOGUANINE; 1000 nM) | surviving fraction (SAPACITABINE; 0.5 nM) | surviving fraction (SAPACITABINE; 1 nM) | surviving fraction (SAPACITABINE; 5 nM) | surviving fraction (SAPACITABINE; 10 nM) | surviving fraction (SAPACITABINE; 50 nM) | surviving fraction (SAPACITABINE; 100 nM) | surviving fraction (SAPACITABINE; 500 nM) | surviving fraction (SAPACITABINE; 1000 nM)
CASKI CERVIX | 0.902 ± 0.091 | 0.902 ± 0.056 | 0.934 ± 0.029 | 0.952 ± 0.032 | 0.9923 ± 0.0092 | 1.01 ± 0.014 | 0.962 ± 0.037 | 0.839 ± 0.072 | 0.804 ± 0.055 | 0.843 ± 0.048 | 0.795 ± 0.026 | 0.746 ± 0.04 | 1.02 ± 0.053 | 0.936 ± 0.036 | 0.45 ± 0.019 | 0.268 ± 0.0036
CHLA90 AUTONOMIC GANGLIA | 0.95 ± 0.029 | 0.99 ± 0.04 | 1 ± 0.038 | 0.948 ± 0.034 | 0.96 ± 0.043 | 0.913 ± 0.08 | 0.88 ± 0.057 | 0.912 ± 0.048 | 0.843 ± 0.099 | 0.692 ± 0.038 | 0.797 ± 0.052 | 0.235 ± 0.019 | 0.889 ± 0.092 | 0.755 ± 0.057 | 0.641 ± 0.042 | 0.212 ± 0.038
CME SYNOVIAL | 1.07 ± 0.067 | 1.22 ± 0.12 | 1.16 ± 0.051 | 1.22 ± 0.03 | 1.29 ± 0.021 | 1.32 ± 0.19 | 1.24 ± 0.054 | 1.08 ± 0.18 | 0.788 ± 0.087 | 0.415 ± 0.05 | 0.703 ± 0.091 | 0.027 ± 0.011 | 0.922 ± 0.077 | 0.379 ± 0.075 | 0.248 ± 0.016 | 0.034 ± 0.0076
COLO320DM LARGE INTESTINE | 1.13 ± 0.03 | 1.1 ± 0.056 | 1.003 ± 0.0076 | 1.09 ± 0.067 | 1.03 ± 0.019 | 1.09 ± 0.049 | 1.078 ± 0.0053 | 1.04 ± 0.049 | 1.01 ± 0.054 | 0.88 ± 0.044 | 1.08 ± 0.043 | 0.386 ± 0.015 | 0.887 ± 0.057 | 0.689 ± 0.0072 | 0.597 ± 0.024 | 0.185 ± 0.0083
DU4475 BREAST | 0.746 ± 0.054 | 1 ± 0.31 | 0.784 ± 0.2 | 0.798 ± 0.17 | 0.687 ± 0.23 | 0.743 ± 0.24 | 0.721 ± 0.4 | 0.704 ± 0.29 | 0.637 ± 0.062 | 0.863 ± 0.13 | 0.743 ± 0.051 | 0.699 ± 0.12 | 0.655 ± 0.077 | 0.458 ± 0.049 | 0.16 ± 0.033 | 0.0713 ± 0.018
G292 BONE | 0.964 ± 0.034 | 0.998 ± 0.045 | 1 ± 0.021 | 0.984 ± 0.036 | 1.01 ± 0.023 | 1.02 ± 0.016 | 0.948 ± 0.011 | 0.949 ± 0.035 | 0.947 ± 0.056 | 0.955 ± 0.026 | 0.927 ± 0.059 | 0.899 ± 0.061 | 0.618 ± 0.028 | 0.482 ± 0.012 | 0.326 ± 0.011 | 0.299 ± 0.0036
H23 LUNG | 0.962 ± 0.017 | 0.966 ± 0.044 | 0.974 ± 0.024 | 0.993 ± 0.046 | 0.997 ± 0.058 | 1.04 ± 0.03 | 0.964 ± 0.02 | 0.966 ± 0.025 | 0.891 ± 0.02 | 0.894 ± 0.025 | 0.916 ± 0.028 | 0.924 ± 0.015 | 0.868 ± 0.051 | 0.668 ± 0.024 | 0.301 ± 0.013 | 0.264 ± 0.014
HCC38 BREAST | 1.15 ± 0.31 | 1.3 ± 0.38 | 1.15 ± 0.29 | 1.28 ± 0.099 | 1.1 ± 0.24 | 1.08 ± 0.062 | 1.08 ± 0.32 | 0.95 ± 0.15 | 0.958 ± 0.075 | 0.931 ± 0.092 | 1.02 ± 0.21 | 0.801 ± 0.02 | 0.594 ± 0.17 | 0.525 ± 0.04 | 0.414 ± 0.086 | 0.274 ± 0.088
HCC70 BREAST | 1.05 ± 0.03 | 0.896 ± 0.043 | 1.03 ± 0.069 | 1 ± 0.013 | 1.04 ± 0.13 | 1.02 ± 0.052 | 1.04 ± 0.059 | 1.04 ± 0.1 | 0.968 ± 0.09 | 0.935 ± 0.058 | 1.03 ± 0.036 | 0.97 ± 0.023 | 0.746 ± 0.065 | 0.635 ± 0.0092 | 0.4057 ± 0.0035 | 0.332 ± 0.028
HCC78 LUNG | 0.726 ± 0.091 | 0.781 ± 0.21 | 0.854 ± 0.13 | 0.685 ± 0.23 | 0.866 ± 0.086 | 0.853 ± 0.059 | 0.743 ± 0.2 | 0.773 ± 0.088 | 0.831 ± 0.058 | 0.916 ± 0.25 | 0.913 ± 0.038 | 0.354 ± 0.035 | 0.445 ± 0.095 | 0.123 ± 0.052 | 0.039 ± 0.0087 | 0.0357 ± 0.0059
